Measured values reported in patent publication US8614201B2 (Janssen Pharmaceutica NV, priority 2009, dated 2013).
pIC50: −log10 of the molar value.

Molecular target: Human TRPA1 (Homo sapiens, UniProt O75762)
Test: Assay 1: In vitro cellular testing of TRPA1 modulation (CHO-TREx, Fluo-3 calcium fluorescence, AITC agonist)
Assay type: cell-based
Set-up: expressed in transfected cells; host or cells: CHO-TREx cells (Invitrogen), vector pcDNA4/TO
Settings: CHO-TREx cells expressing human TRPA1; Fluo-3 fluorescence (FLIPR/Tetra); agonist 15 μM allyl isothiocyanate (AITC); 30 minute antagonist incubation
In short: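 Tetracycline-induced CHO-TREx cells stably expressing human TRPA1, loaded with 4 μM Fluo-3 AM, preincubated 30 min with compound (serial dilution typically from 10 μM, three-fold steps) in HEPES saline pH 7.4. Fluorescence change over 3 min after 15 μM AITC; IC50 from Hill fit versus no-antagonist and 10 μM ruthenium red controls.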

Chain of Human TRPA1 (O75762 whole entry): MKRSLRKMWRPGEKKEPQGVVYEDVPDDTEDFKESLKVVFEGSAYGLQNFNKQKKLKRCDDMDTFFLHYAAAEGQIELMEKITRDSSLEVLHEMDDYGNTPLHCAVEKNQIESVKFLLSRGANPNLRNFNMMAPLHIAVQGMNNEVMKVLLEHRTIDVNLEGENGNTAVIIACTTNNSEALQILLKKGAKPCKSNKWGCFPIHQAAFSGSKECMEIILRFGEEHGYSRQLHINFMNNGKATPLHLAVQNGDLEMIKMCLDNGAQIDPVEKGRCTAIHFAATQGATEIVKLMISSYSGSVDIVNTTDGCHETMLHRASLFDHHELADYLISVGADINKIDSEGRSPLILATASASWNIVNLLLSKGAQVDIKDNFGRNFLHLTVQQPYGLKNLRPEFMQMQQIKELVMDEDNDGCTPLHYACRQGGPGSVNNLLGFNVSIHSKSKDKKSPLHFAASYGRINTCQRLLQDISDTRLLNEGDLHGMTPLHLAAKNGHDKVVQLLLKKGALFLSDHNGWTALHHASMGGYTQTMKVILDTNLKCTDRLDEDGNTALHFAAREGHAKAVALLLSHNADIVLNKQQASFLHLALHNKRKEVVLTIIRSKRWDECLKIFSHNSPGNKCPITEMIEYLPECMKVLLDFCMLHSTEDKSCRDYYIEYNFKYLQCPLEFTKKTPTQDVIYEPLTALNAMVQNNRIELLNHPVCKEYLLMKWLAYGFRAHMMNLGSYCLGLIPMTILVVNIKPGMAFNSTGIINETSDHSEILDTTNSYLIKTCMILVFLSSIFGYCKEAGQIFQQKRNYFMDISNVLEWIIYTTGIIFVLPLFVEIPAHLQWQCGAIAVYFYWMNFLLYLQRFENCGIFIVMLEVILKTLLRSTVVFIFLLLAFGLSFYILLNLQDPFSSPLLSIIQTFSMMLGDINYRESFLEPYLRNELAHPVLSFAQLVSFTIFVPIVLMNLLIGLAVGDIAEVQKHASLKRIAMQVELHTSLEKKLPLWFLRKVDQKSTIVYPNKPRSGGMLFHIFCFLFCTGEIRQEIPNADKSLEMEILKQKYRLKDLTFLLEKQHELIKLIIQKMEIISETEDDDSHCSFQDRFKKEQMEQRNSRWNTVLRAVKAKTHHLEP

Row | pIC50 | Compound
1 | 7.20 | O=C(NCc1cc(-c2ccc(C(F)(F)F)cc2)ncn1)[C@@H]1CCCN1S(=O)(=O)c1ccco1 [Example 167, 1-(Furan-2-sulfonyl)-pyrrolidine-2S-carboxylic acid [6-(4-trifluoromethylphenyl)-pyrimidin-4-ylmethyl]-amide]
2 | 7.29 | O=C(NCc1cc(-c2ccc(C(F)(F)F)cc2)ncn1)[C@@H]1CCCN1S(=O)(=O)c1cc(F)cc(F)c1 [Example 169, 1-(3,5-Difluorobenzenesulfonyl)-pyrrolidine-2S-carboxylic acid [6-(4-trifluoromethylphenyl)-pyrimidin-4-ylmethyl]-amide]
3 | 7.70 | O=C(NCc1cc(-c2ccc(C(F)(F)F)cc2)ncn1)[C@@H]1CCCN1S(=O)(=O)c1cccs1 [Example 170, 1-(Thiophene-2-sulfonyl)-pyrrolidine-2S-carboxylic acid [6-(4-trifluoromethylphenyl)-pyrimidin-4-ylmethyl]-amide]
4 | 7.72 | O=C(NCc1cccc(-c2ccc(Cl)cc2)c1)[C@@H]1CCCN1S(=O)(=O)c1ccc(F)cc1 [Example 171, 1-(4-Fluorobenzenesulfonyl)-pyrrolidine-2S-carboxylic acid (4′-chlorobiphenyl-3-ylmethyl)-amide]
5 | 7.96 | O=C(NCc1cc(-c2ccc(C(F)(F)F)cc2)ncn1)[C@@H]1CCCN1S(=O)(=O)c1ccsc1 [Example 172, 1-(Thiophene-3-sulfonyl)-pyrrolidine-2S-carboxylic acid [6-(4-trifluoromethyl-phenyl)-pyrimidin-4-ylmethyl]-amide]
6 | 5.94 | O=C(NCc1cc(-c2ccc(C(F)(F)F)cc2)ncn1)[C@@H]1CCCN1S(=O)(=O)c1cc(Cl)sc1Cl [Example 173, 1-(2,5-Dichlorothiophene-3-sulfonyl)-pyrrolidine-2S-carboxylic acid [6-(4-trifluoromethylphenyl)-pyrimidin-4-ylmethyl]-amide]
7 | 7.02 | O=C(NCc1cc(-c2ccc(C(F)(F)F)cc2)ncn1)[C@@H]1CCCN1S(=O)(=O)c1ccc(Cl)nc1 [Example 174, 1-(6-Chloropyridine-3-sulfonyl)-pyrrolidine-2S-carboxylic acid [6-(4-trifluoromethylphenyl)-pyrimidin-4-ylmethyl]-amide]
8 | 7.35 | O=C(NCc1cc(-c2ccc(C(F)(F)F)cc2)ncn1)[C@@H]1CCCN1S(=O)(=O)c1ccoc1 [Example 176, 1-(Furan-3-sulfonyl)-pyrrolidine-2S-carboxylic acid [6-(4-trifluoromethylphenyl)-pyrimidin-4-ylmethyl]-amide]
9 | 7.15 | O=C(NCc1cc(-c2ccc(OC(F)(F)F)cc2)ncn1)[C@@H]1CCCN1S(=O)(=O)c1ccc(F)cc1 [Example 177, 1-(4-Fluorobenzenesulfonyl)-pyrrolidine-2S-carboxylic acid [6-(4-trifluoromethoxyphenyl)-pyrimidin-4-ylmethyl]-amide]
10 | 6.69 | O=C(NCc1cc(-c2ccc(C(F)(F)F)nc2)ncn1)[C@@H]1CCCN1S(=O)(=O)c1ccc(F)cc1 [Example 178, 1-(4-Fluoro-benzenesulfonyl)-pyrrolidine-2S-carboxylic acid [6-(6-trifluoromethyl-pyridin-3-yl)-pyrimidin-4-ylmethyl]-amide]
11 | 6.64 | O=C(NCc1cc(-c2ccc(C(F)(F)F)cc2)ncn1)[C@@H]1CC(F)(F)CN1S(=O)(=O)c1ccc(F)cc1 [Example 179, (2S)-4,4-Difluoro-1-(4-fluoro-benzenesulfonyl)-pyrrolidine-2-carboxylic acid [6-(4-trifluoromethyl-phenyl)-pyrimidin-4-ylmethyl]-amide]
12 | 6.64 | O=C(NCc1cc(-c2ccc(C(F)(F)F)cc2)ncn1)[C@@H]1CC(F)(F)CN1S(=O)(=O)c1ccc(Cl)s1 [Example 180, (2S)-1-(5-Chloro-thiophene-2-sulfonyl)-4,4-difluoro-pyrrolidine-2-carboxylic acid [6-(4-trifluoromethyl-phenyl)-pyrimidin-4-ylmethyl]-amide]
13 | 7.70 | Cc1nc(CNC(=O)[C@@H]2CCCN2S(=O)(=O)c2ccc(F)cc2)cc(-c2ccc(C(F)(F)F)cc2)n1 [Example 183, 1-(4-Fluoro-benzenesulfonyl)-pyrrolidine-2S-carboxylic acid [2-methyl-6-(4-trifluoromethyl-phenyl)-pyrimidin-4-ylmethyl]-amide]

Second part, the molecule before the results:

Row | Compound | pIC50
14 | O=C(NCc1cc(-c2ccc(C(F)(F)F)cc2)ncn1)[C@@H]1CCCN1S(=O)(=O)c1ccc(OC(F)(F)F)cc1 [Example 149, 1-(4-Trifluoromethoxybenzenesulfonyl)-pyrrolidine-2S-carboxylic acid [6-(4-trifluoromethylphenyl)-pyrimidin-4-ylmethyl]-amide] | 5.44
15 | COc1ccc(S(=O)(=O)N2CCC[C@H]2C(=O)NCc2cc(-c3ccc(C(F)(F)F)cc3)ncn2)cc1 [Example 150, 1-(4-Methoxybenzenesulfonyl)-pyrrolidine-2S-carboxylic acid [6-(4-trifluoromethylphenyl)-pyrimidin-4-ylmethyl]-amide] | 6.42
16 | O=C(NCc1cc(-c2ccc(C(F)(F)F)cc2)ncn1)[C@@H]1CCCN1S(=O)(=O)c1ccc(Cl)cc1 [Example 152, 1-(4-Chlorobenzenesulfonyl)-pyrrolidine-2S-carboxylic acid [6-(4-trifluoromethyl-Phenyl)-pyrimidin-4-ylmethyl]-amide] | 7.18
17 | O=C(NCc1cc(-c2ccc(C(F)(F)F)cc2)ncn1)[C@@H]1CCCN1S(=O)(=O)c1ccccc1F [Example 153, 1-(2-Fluorobenzenesulfonyl)-pyrrolidine-2S-carboxylic acid [6-(4-trifluoromethylphenyl)-pyrimidin-4-ylmethyl]-amide] | 6.40
18 | O=C(NCc1cc(-c2ccc(C(F)(F)F)cc2)ncn1)[C@@H]1CCCN1S(=O)(=O)c1cccc(F)c1 [Example 154, 1-(3-Fluorobenzenesulfonyl)-pyrrolidine-2S-carboxylic acid [6-(4-trifluoromethylphenyl)-pyrimidin-4-ylmethyl]-amide] | 7.36
19 | Cc1ccccc1S(=O)(=O)N1CCC[C@H]1C(=O)NCc1cc(-c2ccc(C(F)(F)F)cc2)ncn1 [Example 155, 1-(Toluene-2-sulfonyl)-pyrrolidine-2S-carboxylic acid [6-(4-trifluoromethylphenyl)-pyrimidin-4-ylmethyl]-amide] | 5.99
20 | Cc1cccc(S(=O)(=O)N2CCC[C@H]2C(=O)NCc2cc(-c3ccc(C(F)(F)F)cc3)ncn2)c1 [Example 156, 1-(Toluene-3-sulfonyl)-pyrrolidine-2S-carboxylic acid [6-(4-trifluoromethylphenyl)-pyrimidin-4-ylmethyl]-amide] | 6.41
21 | O=C(NCc1cc(-c2ccc(C(F)(F)F)cc2)ncn1)[C@@H]1CCCN1S(=O)(=O)c1cccc(C(F)(F)F)c1 [Example 157, 1-(3-Trifluoromethylbenzenesulfonyl)-pyrrolidine-2S-carboxylic acid [6-(4-trifluoromethylphenyl)-pyrimidin-4-ylmethyl]-amide] | 5.33
22 | O=C(NCc1cc(-c2ccc(C(F)(F)F)cc2)ncn1)[C@@H]1CCCN1S(=O)(=O)c1ccc(C(F)(F)F)cc1 [Example 158, 1-(4-Trifluoromethylbenzenesulfonyl)-pyrrolidine-2S-carboxylic acid [6-(4-trifluoromethylphenyl)-pyrimidin-4-ylmethyl]-amide] | 6.23
23 | N#Cc1ccc(S(=O)(=O)N2CCC[C@H]2C(=O)NCc2cc(-c3ccc(C(F)(F)F)cc3)ncn2)cc1 [Example 159, 1-(4-Cyanobenzenesulfonyl)-pyrrolidine-2S-carboxylic acid [6-(4-trifluoromethylphenyl)-pyrimidin-4-ylmethyl]-amide] | 5.96
24 | O=C(NCc1cc(-c2ccc(C(F)(F)F)cc2)ncn1)[C@@H]1CCCN1S(=O)(=O)c1ccccc1 [Example 160, 1-Benzenesulfonylpyrrolidine-2S-carboxylic acid [6-(4-trifluoromethylphenyl)-pyrimidin-4-ylmethyl]-amide] | 7.11
25 | Cc1ccc(S(=O)(=O)N2CCC[C@H]2C(=O)NCc2cc(-c3ccc(C(F)(F)F)cc3)ncn2)cc1 [Example 161, 1-(Toluene-4-sulfonyl)-pyrrolidine-2S-carboxylic acid [6-(4-trifluoromethylphenyl)-pyrimidin-4-ylmethyl]-amide] | 6.86
26 | CC(=O)c1ccc(S(=O)(=O)N2CCC[C@H]2C(=O)NCc2cc(-c3ccc(C(F)(F)F)cc3)ncn2)cc1 [Example 162, 1-(4-Acetylbenzenesulfonyl)-pyrrolidine-2S-carboxylic acid [6-(4-trifluoromethylphenyl)-pyrimidin-4-ylmethyl]-amide] | 5.77
27 | O=C(NCc1cc(-c2ccc(C(F)(F)F)cc2)ncn1)[C@@H]1CCCN1S(=O)(=O)c1ccc([N+](=O)[O-])cc1 [Example 163, 1-(4-Nitrobenzenesulfonyl)-pyrrolidine-2S-carboxylic acid [6-(4-trifluoromethylphenyl)-pyrimidin-4-ylmethyl]-amide] | 7.85
28 | O=C(NCc1cc(-c2ccc(C(F)(F)F)cc2)ncn1)[C@@H]1CCCN1S(=O)(=O)c1cc(Cl)c(Cl)s1 [Example 165, 1-(4,5-Dichlorothiophene-2-sulfonyl)-pyrrolidine-2S-carboxylic acid [6-(4-trifluoromethylphenyl)-pyrimidin-4-ylmethyl]-amide] | 7.96
29 | O=C(NCc1cc(-c2ccc(C(F)(F)F)cc2)ncn1)[C@@H]1CCCN1S(=O)(=O)c1ccc(Cl)s1 [Example 166, 1-(5-Chlorothiophene-2-sulfonyl)-pyrrolidine-2S-carboxylic acid [6-(4-trifluoromethylphenyl)-pyrimidin-4-ylmethyl]-amide] | 7.85
